Assay results reported in paper PMC8876975, “EGFR and COX-2 Dual Inhibitor: The Design, Synthesis, and Biological Evaluation of Novel Chalcones” (Molecules, 2022).
Like-named read-outs stand apart in the source and are kept apart here.

Tests used:
[1] = tested on: pancreatic ductal cancer (Panc-1); experiment: MTT cytotoxicity assay, Panc-1; assay type: cell-based; settings: Homo sapiens; Panc-1, MTT, 72 h; read-out: Antiproliferative Activity IC50 ± SEM, Panc-1
[2] = tested on: human malignant melanoma (A375); experiment: MTT cytotoxicity assay, A375; assay type: cell-based; settings: Homo sapiens, A-375, 72 h, read-out: Antiproliferative Activity IC50 ± SEM, A375
[3] = tested on: human colon cancer (HT-29); experiment: MTT cytotoxicity assay, HT-29; assay type: cell-based; settings: Homo sapiens; HT-29, MTT, 72 h; read-out: Antiproliferative Activity IC50 ± SEM, HT-29
lung cancer (H-460) = experiment: MTT cytotoxicity assay, H-460; assay type: cell-based; settings: Homo sapiens, NCI-H460; H-460, MTT, 72 h; read-out: Antiproliferative Activity IC50 ± SEM, H-460
[4] = Cell viability % (MTT, normal cell line); settings: human, MRC5 normal fetal lung fibroblast cells
[5] = tested on: pancreatic cancer (PaCa-2); experiment: MTT cytotoxicity assay, PaCa-2; assay type: cell-based; settings: PaCa-2, MTT, 72 h; read-out: Antiproliferative Activity IC50 ± SEM, PaCa-2
human recombinant COX-2 = target: T1, human recombinant COX-2 (Homo sapiens, UniProt P35354); experiment: Cyclooxygenase assay (PGE2 quantification), COX-2; assay type: biochemical; settings: mean ± SD; n = 3
T1 construct: purchased Cayman Chemicals
T1 sequence (P35354 18-604): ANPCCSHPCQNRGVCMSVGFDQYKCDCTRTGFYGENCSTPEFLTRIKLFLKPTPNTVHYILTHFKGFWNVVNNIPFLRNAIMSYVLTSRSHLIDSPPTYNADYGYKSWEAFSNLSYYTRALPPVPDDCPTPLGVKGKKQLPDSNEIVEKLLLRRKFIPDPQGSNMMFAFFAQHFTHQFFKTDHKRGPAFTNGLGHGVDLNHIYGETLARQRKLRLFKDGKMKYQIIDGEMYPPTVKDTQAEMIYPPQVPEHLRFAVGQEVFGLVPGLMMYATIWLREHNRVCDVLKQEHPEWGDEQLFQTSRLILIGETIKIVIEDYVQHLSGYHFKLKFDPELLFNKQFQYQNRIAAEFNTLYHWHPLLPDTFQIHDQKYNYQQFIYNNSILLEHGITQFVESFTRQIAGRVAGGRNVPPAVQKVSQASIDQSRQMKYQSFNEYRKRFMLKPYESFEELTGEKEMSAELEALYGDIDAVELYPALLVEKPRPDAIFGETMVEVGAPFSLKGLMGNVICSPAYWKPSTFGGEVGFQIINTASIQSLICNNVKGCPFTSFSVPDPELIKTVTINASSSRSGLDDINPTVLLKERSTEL

[6] = target: T2, human recombinant sPLA2-V (Homo sapiens, UniProt P39877); experiment: Secretory PLA2-V activity assay (Ellman's photometric method)
T2 sequence (P39877 21-138): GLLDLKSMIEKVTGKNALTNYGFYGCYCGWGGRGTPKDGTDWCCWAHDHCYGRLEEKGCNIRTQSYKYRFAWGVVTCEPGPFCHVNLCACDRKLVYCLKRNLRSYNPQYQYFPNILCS

Sheep-derived COX-1 = target: T3, Sheep-derived COX-1 (Ovis aries, UniProt P05979); experiment: Cyclooxygenase assay (PGE2 quantification), COX-1
T3 sequence (P05979 25-600): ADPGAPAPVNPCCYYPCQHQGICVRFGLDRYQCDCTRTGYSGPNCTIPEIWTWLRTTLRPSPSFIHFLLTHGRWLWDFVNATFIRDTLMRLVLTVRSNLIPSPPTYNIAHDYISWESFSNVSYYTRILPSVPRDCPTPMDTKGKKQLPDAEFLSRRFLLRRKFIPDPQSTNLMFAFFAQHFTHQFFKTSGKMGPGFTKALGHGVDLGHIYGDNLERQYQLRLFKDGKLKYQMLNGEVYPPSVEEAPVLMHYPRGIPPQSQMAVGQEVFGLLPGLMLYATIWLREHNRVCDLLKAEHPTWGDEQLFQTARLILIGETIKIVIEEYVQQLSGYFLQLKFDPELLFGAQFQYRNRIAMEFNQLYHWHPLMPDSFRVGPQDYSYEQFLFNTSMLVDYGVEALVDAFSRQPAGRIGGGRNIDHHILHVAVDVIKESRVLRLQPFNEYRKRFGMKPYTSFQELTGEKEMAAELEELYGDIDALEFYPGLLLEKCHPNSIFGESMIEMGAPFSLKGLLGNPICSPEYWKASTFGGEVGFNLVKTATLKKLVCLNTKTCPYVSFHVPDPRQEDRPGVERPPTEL

EGFR = target: T4, EGFR (Homo sapiens, UniProt P00533); experiment: EGFR kinase inhibition assay (EGFR Kinase Assay Kit); assay type: biochemical; settings: triplicates; read-out: EGFR Inhibition IC50 ± SEM
T4 construct: purchased PBS Bioscience (so in the source)

TNF-α = experiment: ELISA, LPS-induced TNF-α release in RAW264.7 macrophages; assay type: cell-based, mouse
IL-6 = experiment: ELISA, LPS-induced IL-6 release in RAW264.7 macrophages; assay type: cell-based, mouse; settings: Mus musculus, RAW264.7; RAW 264.7, compound 10 µM for 2 h, then LPS 0.5 µg/mL for 22 h

T4 sequence (P00533 25-1210): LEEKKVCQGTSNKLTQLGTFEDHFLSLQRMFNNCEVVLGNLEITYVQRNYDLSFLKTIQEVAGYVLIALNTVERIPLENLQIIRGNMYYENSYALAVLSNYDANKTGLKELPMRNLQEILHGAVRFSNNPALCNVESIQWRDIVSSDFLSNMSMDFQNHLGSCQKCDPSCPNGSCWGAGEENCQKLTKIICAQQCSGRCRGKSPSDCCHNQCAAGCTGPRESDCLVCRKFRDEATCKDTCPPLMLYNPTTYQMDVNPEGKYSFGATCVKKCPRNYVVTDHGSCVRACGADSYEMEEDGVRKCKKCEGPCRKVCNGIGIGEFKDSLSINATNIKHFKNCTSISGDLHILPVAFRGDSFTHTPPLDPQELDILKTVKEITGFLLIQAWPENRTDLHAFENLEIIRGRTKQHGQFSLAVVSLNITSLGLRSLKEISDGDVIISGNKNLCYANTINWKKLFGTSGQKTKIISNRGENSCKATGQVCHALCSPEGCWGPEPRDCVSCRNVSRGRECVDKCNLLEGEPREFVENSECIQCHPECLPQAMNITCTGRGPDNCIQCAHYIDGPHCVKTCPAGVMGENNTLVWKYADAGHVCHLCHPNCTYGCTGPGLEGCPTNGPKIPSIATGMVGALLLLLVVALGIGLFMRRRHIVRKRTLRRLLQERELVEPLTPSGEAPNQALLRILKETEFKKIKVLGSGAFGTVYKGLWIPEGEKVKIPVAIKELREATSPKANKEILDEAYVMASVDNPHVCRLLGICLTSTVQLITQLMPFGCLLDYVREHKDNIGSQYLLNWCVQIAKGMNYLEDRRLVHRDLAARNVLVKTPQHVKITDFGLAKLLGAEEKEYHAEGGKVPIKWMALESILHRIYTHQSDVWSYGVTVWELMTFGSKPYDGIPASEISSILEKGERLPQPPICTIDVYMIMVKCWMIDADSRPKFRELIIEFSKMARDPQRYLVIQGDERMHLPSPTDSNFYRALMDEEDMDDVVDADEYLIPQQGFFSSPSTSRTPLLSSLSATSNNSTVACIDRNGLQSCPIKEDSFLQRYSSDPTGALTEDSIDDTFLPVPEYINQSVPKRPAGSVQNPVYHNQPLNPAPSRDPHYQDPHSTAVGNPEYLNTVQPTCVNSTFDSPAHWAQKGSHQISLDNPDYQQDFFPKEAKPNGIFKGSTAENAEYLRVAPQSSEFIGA

| IC50 (human recombinant COX-2) | IC50 [6] | IC50 (Sheep-derived COX-1) | IC50 (EGFR) | SMILES | IC50 [1] | IC50 [2] | IC50 [3] | IC50 (lung cancer (H-460)) | viability at 72 h [4] | IC50 [5] | IC50 ([6]; read-out: sPLA2-V IC50, mean ± SD, n = 3) | inhibition at 10 µM (TNF-α; Mus musculus, RAW264.7, RAW 264.7, compound 10 µM for 2 h, then LPS 0.5 µg/mL for 22 h) | Relative Amount of LPS (TNF-α) (TNF-α; RAW 264.7, compound 10 µM, TNF-α relative to LPS control = 100) | inhibition at 10 µM (IL-6) |
| --- | --- | --- | --- | --- | --- | --- | --- | --- | --- | --- | --- | --- | --- | --- |
| 5.29 ± 1.1 µM | 9.45 ± 1.67 µM | 49.1 ± 2.69 µM |  | CN(C)c1ccc(/C=C/C(=O)c2cccc(/N=N\c3c(O)ccc4ccccc34)c2)cc1 [Compound C17, (E)-3-(4-(dimethylamino)phenyl)-1-(3-((Z)-(2-hydroxynaphthalen-1-yl)diazenyl)phenyl) prop-2-en-1-one] | 2.5 ± 1.2 µM | 8.8 ± 2.5 µM | 9.2 ± 1.6 µM | 5.6 ± 2.1 µM | 87.2 ± 1.4% | 7.5 ± 1.9 µM |  |  |  |  |
| 5.14 ± 1.1 µM | 7.04 ± 1.29 µM | 11.5 ± 1.2 µM |  | CN(C)c1ccc(/C=C/C(=O)c2cccc(/N=N/c3ccc(O)cc3O)c2)cc1 [Compound C14, (E)-1-(3-((E)-(2,4-Dihydroxyphenyl)diazenyl)phenyl)-3-(4-(dimethylamino)phenyl) prop-2-en-1-one] | 4.6 ± 1.7 µM | 4.9 ± 1.6 µM | 6.5 ± 1.4 µM | 5.2 ± 1.3 µM | 89.4 ± 2.1% | 5.9 ± 1.9 µM |  |  |  |  |
| 19.2 ± 1.52 µM | 5.06 ± 1.2 µM | 18.3 ± 1.27 µM |  | CN(C)c1ccc(/C=C/C(=O)c2cccc(/N=N/c3ccc(O)cc3)c2)cc1 [Compound C13, (E)-3-(4-(Dimethylamino)phenyl)-1-(3-((E)-(4-hydroxyphenyl)diazenyl)phenyl)prop-2-en-1-one] | 8.7 ± 1.4 µM | 8.4 ± 1.5 µM | 7.8 ± 1.8 µM | 6.6 ± 1.2 µM | 90.6 ± 1.7% | 7.4 ± 1.7 µM |  |  |  |  |
| 29.4 ± 1.73 µM | 24.7 ± 1.59 µM | 7.52 ± 1.42 µM | 5.8 ± 1.1 µM | O=C(/C=C/c1ccc(F)cc1)c1cccc(/N=N/c2ccc(O)cc2)c1 [Compound C7, (E)-3-(4-Fluorophenyl)-1-(3-((E)-(4-hydroxyphenyl)diazenyl)phenyl) prop-2-en-1-one] | 4.8 ± 1.6 µM | 5.3 ± 1.5 µM | 4.5 ± 1.7 µM | 5 ± 1.4 µM | 82.6 ± 1.2% | 2.9 ± 1.7 µM |  |  |  |  |
| 32.1 ± 1.4 µM | 14.2 ± 1.32 µM | 5.14 ± 1.27 µM | 4.9 ± 0.9 µM | O=C(/C=C/c1ccc(F)cc1)c1cccc(/N=N/c2ccc(O)cc2O)c1 [Compound C8, (E)-1-(3-((E)-(2,4-Dihydroxyphenyl)diazenyl)phenyl)-3-(4-fluorophenyl) prop-2-en-1-one] | 1.9 ± 0.7 µM | 2.6 ± 0.5 µM | 2.5 ± 7 µM | 2.2 ± 0.5 µM | 83.5 ± 1.2% | 2.8 ± 0.6 µM |  |  |  |  |
| 3.2 ± 0.6 µM | 8.29 ± 0.88 µM | 40.2 ± 3.42 µM |  | CN(C)c1ccc(/C=C/C(=O)c2cccc(/N=N\c3ccc(O)c4ncccc34)c2)cc1 [Compound C18, (E)-3-(4-(dimethylamino)phenyl)-1-(3-((Z)-(8-hydroxyquinolin-5-yl)diazenyl)phenyl) prop-2-en-1-one] | 6.4 ± 0.4 µM | 8.8 ± 2.5 µM | 6.7 ± 0.6 µM | 6.3 ± 1.4 µM | 88.4 ± 2.9% | 6.4 ± 1.5 µM |  | 71% | 29 | 73% |

Further lines, the compound ahead of its results:

| SMILES | IC50 (human recombinant COX-2) | IC50 [6] | IC50 (Sheep-derived COX-1) | IC50 (EGFR) | IC50 [1] | IC50 [2] | IC50 [3] | IC50 (lung cancer (H-460)) | viability at 72 h [4] | IC50 [5] | IC50 ([6]; read-out: sPLA2-V IC50, mean ± SD, n = 3) | inhibition at 10 µM (TNF-α; Mus musculus, RAW264.7, RAW 264.7, compound 10 µM for 2 h, then LPS 0.5 µg/mL for 22 h) | Relative Amount of LPS (TNF-α) (TNF-α; RAW 264.7, compound 10 µM, TNF-α relative to LPS control = 100) | inhibition at 10 µM (IL-6) |
| --- | --- | --- | --- | --- | --- | --- | --- | --- | --- | --- | --- | --- | --- | --- |
| CC(=O)c1cccc(/N=N/c2ccc(O)cc2)c1 [Compound A1] |  |  |  |  | 9.1 ± 1.8 µM | 9.3 ± 1.9 µM | 8.3 ± 2.1 µM | 7.4 ± 2.2 µM | 80.3 ± 1.6% | 8.6 ± 1.2 µM |  |  |  |  |
| C#Cc1cccc(Nc2ncnc3cc(OCCOC)c(OCCOC)cc23)c1 [Erlotinib, reference compound] |  |  |  |  | 0.05 ± 0.02 µM | 4.14 ± 1.2 µM | 0.07 ± 0.04 µM | 0.04 ± 0.02 µM |  | 0.06 ± 0.04 µM |  |  |  |  |
| CC(=O)c1cccc(/N=N/c2c(O)ccc3ccccc23)c1 [Compound A5, (E)-1-(3-((2-Hydroxynaphthalen-1-yl)diazenyl)phenyl)ethan-1-one] | 14.2 ± 1.79 µM | 4.24 ± 1.16 µM | 9.23 ± 1.64 µM |  | 9.6 ± 1.8 µM | 9.6 ± 2.4 µM | 11.9 ± 2.5 µM | 9.2 ± 1.2 µM | 88.2 ± 1.2% | 10.5 ± 1.9 µM |  |  |  |  |
| CC(=O)c1cccc(/N=N/c2ccc(O)cc2O)c1 [Compound A2, (E)-1-(3-((2,4-Dihydroxyphenyl)daizenyl)phenyl)ethan-1-one] | 27.9 ± 1.65 µM | 7.25 ± 1.24 µM | 22.2 ± 2.45 µM |  | 9.6 ± 2 µM | 8.4 ± 2.1 µM | 9.2 ± 2.5 µM | 5.9 ± 2.4 µM | 90.4 ± 1.9% | 9.6 ± 1.5 µM |  |  |  |  |
| C[C@@H]1C[C@H]2[C@@H]3CCC4=CC(=O)C=C[C@]4(C)[C@@]3(F)[C@@H](O)C[C@]2(C)[C@@]1(O)C(=O)CO [Dexamethasone, reference compound] |  |  |  |  |  |  |  |  |  |  | 0.57 ± 0.06 µM |  |  |  |
| CC(=O)c1cccc(/N=N/c2ccc(O)c3ncccc23)c1 [Compound A6, (E)-1-(3-((8-Hydroxyquinolin-5-yl)diazenyl)phenyl)ethan-1-one] | 5.21 ± 1.2 µM | 7.42 ± 1.41 µM | 4.85 ± 1.2 µM |  | 6.9 ± 2.1 µM | 9.5 ± 1.5 µM | 7.6 ± 1.4 µM | 8.8 ± 2.3 µM | 82.5 ± 1.7% | 9.5 ± 1.9 µM |  |  |  |  |
